Assay type in all cases: cell-based
Assay [1] concerns primary human T-cells (IL-2 induced proliferation, JAK-1/JAK-3, Stat-5). Kind of assay: Primary Human T-Cell Proliferation Assay Stimulated with IL-2 (CellTiter-Glo). Conditions: Table III Example 4. In outline: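 Pre-activated peripheral-blood T-cells (TCR/CD28 stimulated, IL-2-maintained) were IL-2-depleted, then plated in Yssel's medium with 80 U/mL IL-2 in the cell suspension and compound in duplicate. Proliferation ran 72 h at 37 °C; viable cells quantified by CellTiter-Glo ATP luminescence, with IL-2-omitted wells as unstimulated control.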

In assay [2] the test system is IL-4 stimulated CD23 upregulation in human Ramos B cells (JAK-1/JAK-3, Stat-6). Put plainly: Assay for Ramos B-Cell Line Stimulated with IL-4 (CD23 upregulation, FACS). Conditions: Table III Example 3. In outline:
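Log-phase Ramos B cells (5×10^4 per point, RPMI with 5% serum) pre-incubated with compound or DMSO 1 h at 37° C, then stimulated with IL-4 at 50 units/mL final for 20-24 h. CD23 upregulation measured by staining and flow cytometry.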

Assay [3] deals with IFNγ induced ICAM-1 (CD54) up-regulation in U937 human monocytic cells (JAK/Stat pathway). Kind of assay: U937 IFNγ ICAM1 FACS Assay. Conditions: Table III Example 6; 10 ng/mL IFNγ, 18-24 hours. From the text: A549 lung epithelial cells and U937 cells up-regulate ICAM-1 (CD54) surface expression in response to a variety of different stimuli. Therefore, using ICAM-1 expression as readout, test compound effects on different signaling pathways can be assessed in the same cell type. Stimulation with IL-1β through the IL-1β receptor activates the TRAF6/NFκB pathway resulting in up-regulation of ICAM-1. IFNγ induces ICAM-1 up-regulation through activation of the JAK1/JAK2 pathway. The up-regulation of ICAM-1 can be quantified by flow cytometry across a compound dose curve and EC50 values are calculated. Exemplary assays of this type are described in greater detail in Examples 5 and 6. U937 human monocytic cells up-regulate ICAM-1 (CD54) surface expression in response to a variety of different stimuli. Therefore, using ICAM-1 expression as readout, compound effects on different signaling pathways can be assessed in the same cell type. IFNγ up-regulates ICAM-1 through activation of the JAK/Stat pathway. In this example, the up-regulation of ICAM-1 by IFNγ was assessed. […] The cells were then plated at a concentration of 100,000 cells per 160 μL in 96 well flat bottom plates. The test compounds were then diluted as follows: 10 mM test compound was diluted 1:5 in DMSO (3 μL 10 mM test compound in 12 μL DMSO), followed by a 1:3 serial dilution of test compound in DMSO (6 μL test compound serially diluted into 12 μL DMSO to give 3-fold dilutions). […] For control wells, 4 μL of DMSO was diluted into 76 μL 10% RPMI. […] The cells and compounds were then pre-incubated for 30 minutes at 37° C. with 5% CO2. […] The cells were kept under conditions for stimulation for 18-24 hours at 37° C. with 5% CO2. […] Cells were spun down at 1000 rpm for 5 minutes at 4° C., following which the supernatant was removed. […] The cells were then incubated on ice in the dark for 30 minutes. […] After suspension, the cells were centrifuged at 1000 rpm for 5 min at 4° C. […] Detection was performed using a BD LSR I System Flow Cytometer, purchased from BD Biosciences of San Jose, Calif. The live cells were gated for live scatter and the geometric mean of ICAM-APC was measured (Becton-Dickinson CellQuest software version 3.3, Franklin Lakes, N.J.). Both % live cells and ICAM-1 expression was analyzed. The assays for the test compounds were carried out in parallel with a control compound of known activity.

On to `Cc1cnc(Nc2cccc(S(N)(=O)=O)c2)nc1Nc1ccc2c(c1)CCN(S(=O)(=O)C1CC1)C2` [II-2, N2-(3-aminosulfonyl)phenyl-N4-[(N-cyclopropylsulfonyl)-1,2,3,4-tetrahydroisoquinolin-6-yl]-5-methyl-2,4-pyrimidinediamine], for which the IC50 in assay [1] turned out to be 30.4 nM; in assay [2], 7.75 nM; in assay [3], 107 nM.

`CNS(=O)(=O)c1cc(Nc2ncc(C)c(Nc3cccc(CNS(=O)(=O)C4CC4)c3)n2)ccc1C` [Compound I-211, N4-(3-cyclopropylsulfonylaminomethyl)phenyl-5-methyl-N2-(4-methyl-3-methylaminosulfonyl)phenyl-2,4-pyrimidinediamine]: the IC50 stood at 48.2 nM in assay [1], 103 nM in assay [2] and 177 nM in assay [3].

Turning to `CCCNS(=O)(=O)c1ccc(Nc2ncc(C)c(Nc3ccc(CNS(=O)(=O)C4CC4)cc3)n2)cc1` [Compound I-177, N4-(4-cyclopropylsulfonylaminomethyl)phenyl-5-methyl-N2-(4-propylaminosulfonyl)phenyl-2,4-pyrimidinediamine], the IC50 in assay [1] came to 160 nM; in assay [2] it was 17.7 nM; in assay [3], 107 nM.

On to `CCCN(Cc1ccc(Nc2nc(Nc3ccc(C)c(S(N)(=O)=O)c3)ncc2F)cc1)S(=O)(=O)CC` [Compound I-19, N2-(3-aminosulfonyl-4-methyl)phenyl-N4-[4-(N-ethylsulfonyl-N-propylamino)methyl]phenyl-5-fluoro-2,4-pyrimidinediamine], for which the IC50 worked out at 494 nM in assay [1], 148 nM in assay [2] and 1640 nM in assay [3].

Regarding `CCS(=O)(=O)N[C@@H](C)c1ccc(Nc2nc(Nc3ccc(C)c(S(N)(=O)=O)c3)ncc2F)cc1` [Compound I-28, N2-(3-aminosulfonyl-4-methyl)phenyl-N4-[4-(1S-ethylsulfonylamino)ethyl]phenyl-5-fluoro-2,4-pyrimidinediamine], the 50% inhibitory concentration (IC50) came to 376 nM in assay [1], 115 nM in assay [2] and 1110 nM in assay [3].

`CCC(=O)NS(=O)(=O)c1ccc(Nc2ncc(C)c(Nc3ccc(CNS(=O)(=O)C4CC4)cc3)n2)cc1` [Compound I-83, N4-(4-cyclopropylsulfonylaminomethyl)phenyl-5-methyl-N2-(4-propionylaminosulfonyl)phenyl-2,4-pyrimidinediamine]: the IC50 in assay [1] was 152 nM; in assay [2], 181 nM; in assay [3], 266 nM.

For `C#CCNS(=O)(=O)c1cc(Nc2ncc(C)c(Nc3cccc(CNS(=O)(=O)C4CC4)c3)n2)ccc1C` [Compound I-214, N4-(3-cyclopropylsulfonylaminomethyl)phenyl-5-methyl-N2-(4-methyl-3-propargylaminosulfonyl)phenyl-2,4-pyrimidinediamine], the IC50 is 136 nM in assay [1], 162 nM in assay [2] and 190 nM in assay [3].

With `CCC(=O)N(Cc1ccc(Nc2nc(Nc3ccc(S(N)(=O)=O)cc3)ncc2C)cc1)S(=O)(=O)C1CC1` [Compound I-167, N2-(4-aminosulfonyl)phenyl-N4-[4-(N-cyclopropylsulfonyl-N-propionyl)aminomethyl]phenyl-5-methyl-2,4-pyrimidinediamine], the IC50 stood at 116 nM in assay [1], 132 nM in assay [2] and 587 nM in assay [3].

Turning to `Cc1ccc(Nc2ncc(C)c(Nc3ccc(CNS(=O)(=O)c4cccnc4)cc3)n2)cc1S(N)(=O)=O` [Compound I-101, N2-(3-aminosulfonyl-4-methyl)phenyl-5-methyl-N4-[4-(pyrid-3-yl)sulfonylaminomethyl]phenyl-2,4-pyrimidinediamine], the IC50 in assay [1] amounted to 224 nM; in assay [2], 62.4 nM; in assay [3], 433 nM.

Consider `CCCN(Cc1ccc(Nc2nc(Nc3ccc(S(N)(=O)=O)cc3)ncc2C)cc1)S(=O)(=O)C1CC1` [Compound I-79, N2-(4-aminosulfonyl)phenyl-N4-[4-(N-cyclopropylsulfonyl-N-propylamino)methyl]phenyl-5-methyl-2,4-pyrimidinediamine], for which the half-maximal inhibitory concentration (IC50) worked out at 92.3 nM in assay [1], 98 nM in assay [2] and 345 nM in assay [3].

Turning to `CNS(=O)(=O)c1ccc(Nc2ncc(C)c(Nc3ccc(CNS(=O)(=O)C4CC4)cc3)n2)cc1` [Compound I-163, N4-(4-cyclopropylsulfonylaminomethyl)phenyl-5-methyl-N2-(4-methylaminosulfonyl)phenyl-2,4-pyrimidinediamine], the IC50 in assay [1] turned out to be 52.7 nM; in assay [2], 46.7 nM; in assay [3] it was 143 nM.

Take `Cc1ccc(Nc2ncc(C)c(Nc3ccc(CNS(=O)(=O)CC(F)(F)F)cc3)n2)cc1S(N)(=O)=O` [Compound I-98, N2-(3-aminosulfonyl-4-methyl)phenyl-5-methyl-N4-(4-trifluoroethylsulfonylaminomethyl)phenyl-2,4-pyrimidinediamine]: the IC50 was 52.1 nM in assay [1], 25.3 nM in assay [2] and 152 nM in assay [3].

As to `CCS(=O)(=O)NCc1ccc(Nc2nc(Nc3ccc(S(N)(=O)=O)cc3)ncc2F)cc1` [Compound I-8, N2-(4-aminosulfonyl)phenyl-N4-(4-ethylsulfonylaminomethyl)phenyl-5-fluoro-2,4-pyrimidinediamine], the IC50 in assay [1] worked out at 275 nM; in assay [2], 235 nM; in assay [3], 3250 nM.

With `Cc1cnc(Nc2cccc(S(=O)(=O)Nc3ccccc3)c2)nc1Nc1ccc(CNS(=O)(=O)C2CC2)cc1` [Compound I-150, N4-(4-cyclopropylsulfonylaminomethyl)phenyl-5-methyl-N2-(3-phenylaminosulfonyl)phenyl-2,4-pyrimidinediamine], the figures for the IC50 in assay [1], in assay [2] and in assay [3] were 127 nM, 88.6 nM and 565 nM, respectively.

Regarding `Cc1cnc(Nc2ccc(S(N)(=O)=O)cc2)nc1Nc1ccc2c(c1)CN(S(=O)(=O)C1CC1)C2` [II-9, N2-(4-Aminosulfonyl-phenyl)-N4-[(2-cyclopropylsulfonyl)-isoindolin-5-yl]-5-methyl-2,4-pyrimidinediamine], the IC50 worked out at 277 nM in assay [1], 118 nM in assay [2] and 1110 nM in assay [3].

On to `Cc1cnc(Nc2cccc(S(N)(=O)=O)c2)nc1Nc1ccc(CNS(=O)(=O)C2CC2)cc1` [Compound I-46, N2-(3-aminosulfonyl)phenyl-N4-(4-cyclopropylsulfonylaminomethyl)phenyl-5-methyl-2,4-pyrimidinediamine], for which the IC50 in assay [1] amounted to 24.9 nM; in assay [2], 26.8 nM; in assay [3], 188 nM.

As to `Cc1cnc(Nc2ccc(S(N)(=O)=O)cc2)nc1Nc1cccc(CNS(=O)(=O)C2CC2)c1` [Compound I-56, N2-(4-aminosulfonyl)phenyl-N4-(3-cyclopropylsulfonylaminomethyl)phenyl-5-methyl-2,4-pyrimidinediamine], the results for the IC50 in assay [1], in assay [2] and in assay [3] were 310 nM, 162 nM and 726 nM, respectively.

In the case of `CCOC(=NS(=O)(=O)c1cccc(Nc2ncc(C)c(Nc3cccc(CNS(=O)(=O)C4CC4)c3)n2)c1)OCC` [Compound I-128, N4-(3-cyclopropylsulfonylaminomethyl)phenyl-N2-[3-(diethoxy)carbonimidylsulfonyl]phenyl-5-methyl-2,4-pyrimidinediamine], the values for the IC50 in assay [1], in assay [2] and in assay [3] were 62.2 nM, 157 nM and 707 nM, respectively.

The record behind these values is patent US9481654B2, “Compositions and methods for inhibition of the JAK pathway” (Rigel Pharmaceuticals, Inc., priority 2006, dated 2016).
